The text below walks through data of patent publication US20100203104A1, “DELIVERY SYSTEM FOR RISPERIDONE” (N.V. Organon, priority 2006, published 2010).

A short description of this data set: Solubility of risperidone in ethylene vinyl acetate copolymer. The format is physicochemical. Conditions: ethylene vinyl acetate copolymer having a vinyl acetate content of 28%. Here is the method: With risperidone is meant 3-[2-[4-(6-fluoro-1,2-benzisoxazol-3-yl)-1-piperidinyl]ethyl]-6,7,8,9-tetrahydro-2-methyl-4H-pyrido[1,2-a]pyrimidin-4-one. […] Solubility is measured as described in Laarhoven, J. A. H., et al. (2002), International Journal of Pharmaceutics 232, page 165.

In the case of `Cc1nc2n(c(=O)c1CCN1CCC(c3noc4cc(F)ccc34)CC1)CCCC2` [Risperidone, 3-[2-[4-(6-fluoro-1,2-benzisoxazol-3-yl)-1-piperidinyl]ethyl]-6,7,8,9-tetrahydro-2-methyl-4H-pyrido[1,2-a]pyrimidin-4-one], the “solubility in ethylene vinyl acetate copolymer” value is recorded as 0.1 wt %.
